# The source made the active and inactive calls.
# Tests used:
# [1] = target: Trypsin (Sus scrofa, UniProt P00761); test: porcine trypsin inhibitors, dose response, selectivity assay for Rce1 protease inhibitor project, biochemical, quenched peptide fluorescence, cherry-pick (AID 488789)
# [2] = target: CAAX prenyl protease 2 (Homo sapiens, UniProt Q9Y256); test: human Rce1 protease inhibitors, dose response, biochemical, yeast membranes, quenched-peptide fluorescence, cherry-pick (AID 588849)
# [3] = tested on: Escherichia coli; test: microbe, parasite or virus in culture
# [4] = tested on: Escherichia coli; test: microbe, parasite or virus in culture; remark: listed apart in the source
# [5] = target: Beta-2 adrenergic receptor (Homo sapiens, UniProt P07550); test: beta2AR agonists driving receptor internalization, dose response, cell-based, FAP fluorogen, flow cytometry, cherry pick 1 (AID 588763); format: functional
# [6] = Counterscreen for AddAB inhibitors: absorbance-based bacterial cell-based high throughput dose response assay for inhibitors of bacterial viability. [Related pubchem assays (depositor defined):AID435030, AID449728, AID449731, AID488942, AID488955, AID488956]; format: functional
# [7] = target: Exodeoxyribonuclease V (Escherichia coli (strain K12), UniProt P04993+P07648+P08394); test: E. coli RecBCD inhibitors, dose response, counter-screen for AddAB inhibitor project, absorbance, V66 E. coli, mutant T4 phage (AID 492957); format: functional, cell-based, Escherichia coli str. K-12 substr. MG1655
# [8] = target: Cytochrome P450 2D6 (Homo sapiens, UniProt P10635);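 further: CYP2D6 member of a cytochrome P450 panel assay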
# [9] = target: Cytochrome P450 3A4 (Homo sapiens, UniProt P08684);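 further: CYP3A4 tested as one member of a cytochrome P450 panel screen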
# [10] = target: Cytochrome P450 2C19 (Homo sapiens, UniProt P33261); test: Cytochrome panel assay with activity outcomes. Panel member name: p450-cyp2c19 Compounds with AC50 equal or less than 10 uM are considered active; format: functional; conditions: read-out: AC50
# [11] = target: Ephrin type-A receptor 4 (Mus musculus, UniProt Q03137); test: inhibitors of EphA4 binding to KYL peptide, primary screen, biochemical, colorimetric, mouse EphA4 (AID 689); format: functional
# [12] = target: T1, Sentrin-specific protease 6 (Homo sapiens, UniProt Q9GZR1); test: SAR Analysis of small molecule inhibitors of Sentrin-specific protease 6 (SENP6) using a Luminescent assay. [Related pubchem assays (depositor defined):AID2582, AID2599]; format: functional
# T1 sequence (Q9GZR1 whole entry): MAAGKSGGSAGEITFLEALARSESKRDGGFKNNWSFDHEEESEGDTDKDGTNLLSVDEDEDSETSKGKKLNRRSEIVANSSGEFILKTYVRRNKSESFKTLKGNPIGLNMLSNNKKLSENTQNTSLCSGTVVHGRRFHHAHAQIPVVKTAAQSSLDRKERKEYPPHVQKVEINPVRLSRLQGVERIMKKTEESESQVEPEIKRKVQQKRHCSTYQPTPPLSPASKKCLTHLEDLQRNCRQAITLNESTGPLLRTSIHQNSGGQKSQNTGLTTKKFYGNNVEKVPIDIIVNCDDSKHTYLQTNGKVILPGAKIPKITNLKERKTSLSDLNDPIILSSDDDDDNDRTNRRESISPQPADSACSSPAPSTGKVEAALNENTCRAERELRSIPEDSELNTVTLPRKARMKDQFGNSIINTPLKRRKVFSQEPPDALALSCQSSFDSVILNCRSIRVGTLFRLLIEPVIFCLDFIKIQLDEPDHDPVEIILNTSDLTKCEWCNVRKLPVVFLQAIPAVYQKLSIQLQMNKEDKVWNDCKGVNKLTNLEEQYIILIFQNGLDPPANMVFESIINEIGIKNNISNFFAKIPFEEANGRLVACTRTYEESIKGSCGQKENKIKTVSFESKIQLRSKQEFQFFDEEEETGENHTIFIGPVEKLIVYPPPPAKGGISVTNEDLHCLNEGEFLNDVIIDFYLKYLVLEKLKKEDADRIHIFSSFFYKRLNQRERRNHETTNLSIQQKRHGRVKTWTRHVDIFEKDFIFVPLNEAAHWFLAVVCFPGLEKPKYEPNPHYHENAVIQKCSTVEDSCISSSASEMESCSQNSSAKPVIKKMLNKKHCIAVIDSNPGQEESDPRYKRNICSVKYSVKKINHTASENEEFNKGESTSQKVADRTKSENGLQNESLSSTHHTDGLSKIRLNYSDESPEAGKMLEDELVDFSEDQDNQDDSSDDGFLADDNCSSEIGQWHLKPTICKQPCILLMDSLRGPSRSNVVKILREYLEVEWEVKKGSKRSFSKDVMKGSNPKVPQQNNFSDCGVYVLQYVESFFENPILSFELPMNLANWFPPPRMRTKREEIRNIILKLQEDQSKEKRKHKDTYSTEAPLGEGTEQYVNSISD
# [13] = target: T2, Caspase-3 (Homo sapiens, UniProt P42574); test: SAR Analysis of small molecule inhibitors of Sentrin-specific proteases (SENPs) using a Caspase-3 Selectivity assay. [Related pubchem assays (depositor defined):AID2540, AID2599, AID434973, AID489001]; format: functional
# T2 sequence (P42574 whole entry): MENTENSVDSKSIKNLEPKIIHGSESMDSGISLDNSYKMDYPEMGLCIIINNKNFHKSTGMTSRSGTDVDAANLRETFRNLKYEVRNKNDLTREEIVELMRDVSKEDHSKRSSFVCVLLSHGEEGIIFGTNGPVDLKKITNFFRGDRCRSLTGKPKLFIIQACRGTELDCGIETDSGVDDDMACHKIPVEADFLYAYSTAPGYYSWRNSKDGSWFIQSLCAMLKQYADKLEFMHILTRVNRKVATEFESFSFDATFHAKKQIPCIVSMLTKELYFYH
# [14] = target: T3, Sentrin-specific protease 7 (Homo sapiens, UniProt Q9BQF6); test: SENP7 protease inhibitors, SAR follow-up, biochemical, luminescence (AID 504497); format: functional
# T3 sequence (Q9BQF6 whole entry): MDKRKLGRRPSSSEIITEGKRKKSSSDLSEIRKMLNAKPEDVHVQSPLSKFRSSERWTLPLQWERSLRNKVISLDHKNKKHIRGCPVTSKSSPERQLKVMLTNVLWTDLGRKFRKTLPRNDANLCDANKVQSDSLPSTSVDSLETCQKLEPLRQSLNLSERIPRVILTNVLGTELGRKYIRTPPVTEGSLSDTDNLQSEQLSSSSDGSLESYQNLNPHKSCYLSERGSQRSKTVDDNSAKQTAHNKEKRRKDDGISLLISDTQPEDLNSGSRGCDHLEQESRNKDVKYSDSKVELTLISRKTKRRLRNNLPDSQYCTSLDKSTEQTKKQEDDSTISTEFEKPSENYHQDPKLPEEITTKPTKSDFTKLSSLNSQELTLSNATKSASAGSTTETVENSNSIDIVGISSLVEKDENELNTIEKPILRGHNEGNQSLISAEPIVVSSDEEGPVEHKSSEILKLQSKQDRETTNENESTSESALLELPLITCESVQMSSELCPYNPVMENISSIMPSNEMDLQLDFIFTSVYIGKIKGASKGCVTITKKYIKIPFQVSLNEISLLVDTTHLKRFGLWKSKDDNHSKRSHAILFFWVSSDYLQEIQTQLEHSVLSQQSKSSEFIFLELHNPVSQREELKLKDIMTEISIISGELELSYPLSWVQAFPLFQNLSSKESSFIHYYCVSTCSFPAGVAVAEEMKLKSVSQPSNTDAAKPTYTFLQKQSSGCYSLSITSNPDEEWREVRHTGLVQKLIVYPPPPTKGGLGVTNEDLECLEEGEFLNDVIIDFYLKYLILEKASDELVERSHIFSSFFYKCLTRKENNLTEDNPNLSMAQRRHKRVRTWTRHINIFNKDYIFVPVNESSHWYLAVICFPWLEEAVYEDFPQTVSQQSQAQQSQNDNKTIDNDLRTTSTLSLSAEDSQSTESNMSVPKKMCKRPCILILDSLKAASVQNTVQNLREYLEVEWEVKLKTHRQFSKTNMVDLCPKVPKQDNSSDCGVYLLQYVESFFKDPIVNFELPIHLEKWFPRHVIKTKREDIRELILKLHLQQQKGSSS
# [15] = target: T4, Sentrin-specific protease 8 (Homo sapiens, UniProt Q96LD8); test: SENP8 protease inhibitors, SAR follow-up, biochemical, luminescence (AID 504501); format: functional
# T4 sequence (Q96LD8 whole entry): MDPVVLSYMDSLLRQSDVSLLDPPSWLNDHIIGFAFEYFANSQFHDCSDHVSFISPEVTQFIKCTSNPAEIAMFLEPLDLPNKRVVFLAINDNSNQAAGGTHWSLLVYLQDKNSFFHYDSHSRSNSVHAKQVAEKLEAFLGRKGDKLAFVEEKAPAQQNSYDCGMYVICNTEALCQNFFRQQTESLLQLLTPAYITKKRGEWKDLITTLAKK
# [16] = target: Dual specificity tyrosine-phosphorylation-regulated kinase 1A (Rattus norvegicus, UniProt Q63470); format: biochemical, Homo sapiens
# [17] = tested on: HEK293; test: cells; conditions: Homo sapiens;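 further: cells exposed to compound for 14 hours overnight before viability readout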
# [18] = target: Tumor necrosis factor (Homo sapiens, UniProt P01375); test: TNFa-triggered NF-kB activation inhibitors, SAR follow-up, cell-based, revised (AID 2337); format: functional
# [19] = target: Peroxisome proliferator-activated receptor gamma/Nuclear receptor coactivator 1 (Homo sapiens, UniProt P37231); test: TR-FRET dose response biochemical High Throughput Screening assay for agonists of the steroid receptor coactivator 1 (SRC-1) recruitment by the peroxisome proliferator-activated receptor gamma (PPAR gamma): non-selective agonists. [Related pubchem assays (depositor defined):AID1300, AID1808, AID504735, AID631]; format: protein assay
# [20] = target: T5, Heat shock factor protein 1 (Mus musculus, UniProt P38532); test: HSF1 potentiators in luciferase reporter cells, confirmation, cell-based, NIH3T3, luminescence, dose retest (AID 435004); format: functional;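 further: stress induced by proteasome inhibitor MG132 added 30 min after compound; luciferase reporter driven by HSF1 response element in NIH3T3 cells; actives raise luminescence as potentiators of the MG132 stress response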
# T5 sequence (P38532 whole entry): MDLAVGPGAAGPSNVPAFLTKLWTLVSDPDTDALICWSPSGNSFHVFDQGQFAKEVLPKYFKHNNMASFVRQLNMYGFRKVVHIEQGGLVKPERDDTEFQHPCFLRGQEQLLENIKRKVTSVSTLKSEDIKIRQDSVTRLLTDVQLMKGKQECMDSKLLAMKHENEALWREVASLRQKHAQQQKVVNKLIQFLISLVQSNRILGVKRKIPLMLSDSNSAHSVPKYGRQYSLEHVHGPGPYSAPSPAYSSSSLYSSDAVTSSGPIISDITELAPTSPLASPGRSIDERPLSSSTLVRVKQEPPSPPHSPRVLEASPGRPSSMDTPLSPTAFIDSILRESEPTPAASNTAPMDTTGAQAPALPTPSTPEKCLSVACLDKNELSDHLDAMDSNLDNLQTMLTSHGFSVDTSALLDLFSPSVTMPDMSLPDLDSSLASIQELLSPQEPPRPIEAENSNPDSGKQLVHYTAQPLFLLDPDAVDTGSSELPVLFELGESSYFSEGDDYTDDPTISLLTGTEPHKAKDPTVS
# [21] = target: Peroxisome proliferator-activated receptor gamma/Nuclear receptor coactivator 3 (Homo sapiens, UniProt P37231); test: TR-FRET dose response biochemical High Throughput Screening assay for agonists of the steroid receptor coactivator 3 (SRC-3) recruitment by the peroxisome proliferator-activated receptor gamma (PPAR gamma): non-selective agonists. [Related pubchem assays: 1301 (Confirmation screen.), 1048 (Primary screen.)]; format: functional
# [22] = target: Peroxisome proliferator-activated receptor gamma/Nuclear receptor coactivator 2 (Homo sapiens, UniProt P37231); test: TR-FRET dose response biochemical High Throughput Screening assay for agonists of the steroid receptor coactivator 2 (SRC-2) recruitment by the peroxisome proliferator-activated receptor gamma (PPAR gamma): non-selective agonists. [Related pubchem assays: 1297, 1032 ]; format: functional
# Sequence of Cytochrome P450 2D6 (P10635 whole entry): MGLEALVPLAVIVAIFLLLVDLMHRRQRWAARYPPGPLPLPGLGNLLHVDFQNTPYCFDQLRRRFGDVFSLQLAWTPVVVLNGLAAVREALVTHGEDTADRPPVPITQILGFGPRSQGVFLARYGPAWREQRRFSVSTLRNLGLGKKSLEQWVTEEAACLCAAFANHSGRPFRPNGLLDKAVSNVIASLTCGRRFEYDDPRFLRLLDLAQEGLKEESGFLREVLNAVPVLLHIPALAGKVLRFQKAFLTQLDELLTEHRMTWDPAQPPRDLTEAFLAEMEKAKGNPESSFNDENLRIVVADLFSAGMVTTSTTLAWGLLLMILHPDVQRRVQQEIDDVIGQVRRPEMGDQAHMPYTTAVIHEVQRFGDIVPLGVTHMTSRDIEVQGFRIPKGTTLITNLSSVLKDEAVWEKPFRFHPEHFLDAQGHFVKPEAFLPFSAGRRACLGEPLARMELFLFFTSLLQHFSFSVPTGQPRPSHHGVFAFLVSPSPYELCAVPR
# Sequence of Ephrin type-A receptor 4 (Q03137 whole entry): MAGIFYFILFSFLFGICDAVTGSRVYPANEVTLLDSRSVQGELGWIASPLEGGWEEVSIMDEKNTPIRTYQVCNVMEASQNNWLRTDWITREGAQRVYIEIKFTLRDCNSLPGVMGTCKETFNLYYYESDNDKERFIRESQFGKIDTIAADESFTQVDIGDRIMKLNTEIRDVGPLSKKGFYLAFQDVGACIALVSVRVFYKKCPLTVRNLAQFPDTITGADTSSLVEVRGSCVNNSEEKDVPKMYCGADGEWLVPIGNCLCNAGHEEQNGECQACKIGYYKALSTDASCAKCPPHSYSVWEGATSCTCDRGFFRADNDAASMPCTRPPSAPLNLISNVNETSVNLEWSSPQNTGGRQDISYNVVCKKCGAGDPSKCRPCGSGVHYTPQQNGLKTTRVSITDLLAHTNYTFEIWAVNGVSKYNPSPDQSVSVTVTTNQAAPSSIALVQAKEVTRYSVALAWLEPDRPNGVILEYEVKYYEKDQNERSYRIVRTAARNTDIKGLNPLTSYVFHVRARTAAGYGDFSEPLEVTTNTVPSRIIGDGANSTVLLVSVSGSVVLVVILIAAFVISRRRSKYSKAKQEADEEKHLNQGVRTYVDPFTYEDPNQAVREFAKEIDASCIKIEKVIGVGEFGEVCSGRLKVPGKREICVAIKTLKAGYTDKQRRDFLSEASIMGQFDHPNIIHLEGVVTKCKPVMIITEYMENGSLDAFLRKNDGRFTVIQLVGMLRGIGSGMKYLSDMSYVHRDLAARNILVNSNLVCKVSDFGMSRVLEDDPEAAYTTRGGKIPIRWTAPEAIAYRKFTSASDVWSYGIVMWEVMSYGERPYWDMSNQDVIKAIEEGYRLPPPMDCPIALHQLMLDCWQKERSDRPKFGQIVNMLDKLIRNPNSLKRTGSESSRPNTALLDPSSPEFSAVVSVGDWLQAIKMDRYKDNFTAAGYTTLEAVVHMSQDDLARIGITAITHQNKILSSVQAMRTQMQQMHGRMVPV
# Sequence of Trypsin (P00761 whole entry): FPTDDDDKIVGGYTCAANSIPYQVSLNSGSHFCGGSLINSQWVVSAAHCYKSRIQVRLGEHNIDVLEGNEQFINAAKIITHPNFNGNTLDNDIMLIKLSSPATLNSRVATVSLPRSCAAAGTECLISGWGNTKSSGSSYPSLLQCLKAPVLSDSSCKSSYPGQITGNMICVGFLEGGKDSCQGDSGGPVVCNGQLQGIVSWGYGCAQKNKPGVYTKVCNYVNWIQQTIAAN
# Sequence of Beta-2 adrenergic receptor (P07550 whole entry): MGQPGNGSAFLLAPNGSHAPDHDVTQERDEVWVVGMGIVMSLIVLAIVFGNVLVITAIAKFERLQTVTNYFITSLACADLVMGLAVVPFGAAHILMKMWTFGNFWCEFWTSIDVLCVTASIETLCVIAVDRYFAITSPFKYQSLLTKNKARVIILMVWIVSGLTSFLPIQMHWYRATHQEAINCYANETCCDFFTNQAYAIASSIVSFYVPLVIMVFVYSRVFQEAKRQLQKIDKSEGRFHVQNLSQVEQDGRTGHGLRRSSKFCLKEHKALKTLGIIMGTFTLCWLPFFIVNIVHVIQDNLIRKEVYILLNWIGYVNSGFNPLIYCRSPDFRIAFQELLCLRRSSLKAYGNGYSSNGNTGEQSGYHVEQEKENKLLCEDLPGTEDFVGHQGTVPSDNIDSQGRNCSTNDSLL
# Sequence of Exodeoxyribonuclease V (P04993 whole entry): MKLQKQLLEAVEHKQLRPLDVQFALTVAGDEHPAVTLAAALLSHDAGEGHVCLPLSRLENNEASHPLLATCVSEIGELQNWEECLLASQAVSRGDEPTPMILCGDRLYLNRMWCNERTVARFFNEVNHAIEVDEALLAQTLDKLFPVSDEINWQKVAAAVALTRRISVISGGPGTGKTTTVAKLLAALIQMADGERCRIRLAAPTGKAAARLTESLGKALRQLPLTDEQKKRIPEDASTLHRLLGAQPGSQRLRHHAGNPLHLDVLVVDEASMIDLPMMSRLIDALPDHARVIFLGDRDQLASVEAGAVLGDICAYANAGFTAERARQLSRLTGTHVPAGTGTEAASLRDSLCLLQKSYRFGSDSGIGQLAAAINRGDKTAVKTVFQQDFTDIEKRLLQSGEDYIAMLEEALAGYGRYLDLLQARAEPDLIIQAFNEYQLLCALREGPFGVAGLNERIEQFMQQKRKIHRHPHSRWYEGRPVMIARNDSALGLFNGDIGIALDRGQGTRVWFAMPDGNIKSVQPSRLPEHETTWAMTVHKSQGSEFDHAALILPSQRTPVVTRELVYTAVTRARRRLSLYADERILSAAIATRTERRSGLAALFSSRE
# Sequence of Exodeoxyribonuclease V (P07648 whole entry): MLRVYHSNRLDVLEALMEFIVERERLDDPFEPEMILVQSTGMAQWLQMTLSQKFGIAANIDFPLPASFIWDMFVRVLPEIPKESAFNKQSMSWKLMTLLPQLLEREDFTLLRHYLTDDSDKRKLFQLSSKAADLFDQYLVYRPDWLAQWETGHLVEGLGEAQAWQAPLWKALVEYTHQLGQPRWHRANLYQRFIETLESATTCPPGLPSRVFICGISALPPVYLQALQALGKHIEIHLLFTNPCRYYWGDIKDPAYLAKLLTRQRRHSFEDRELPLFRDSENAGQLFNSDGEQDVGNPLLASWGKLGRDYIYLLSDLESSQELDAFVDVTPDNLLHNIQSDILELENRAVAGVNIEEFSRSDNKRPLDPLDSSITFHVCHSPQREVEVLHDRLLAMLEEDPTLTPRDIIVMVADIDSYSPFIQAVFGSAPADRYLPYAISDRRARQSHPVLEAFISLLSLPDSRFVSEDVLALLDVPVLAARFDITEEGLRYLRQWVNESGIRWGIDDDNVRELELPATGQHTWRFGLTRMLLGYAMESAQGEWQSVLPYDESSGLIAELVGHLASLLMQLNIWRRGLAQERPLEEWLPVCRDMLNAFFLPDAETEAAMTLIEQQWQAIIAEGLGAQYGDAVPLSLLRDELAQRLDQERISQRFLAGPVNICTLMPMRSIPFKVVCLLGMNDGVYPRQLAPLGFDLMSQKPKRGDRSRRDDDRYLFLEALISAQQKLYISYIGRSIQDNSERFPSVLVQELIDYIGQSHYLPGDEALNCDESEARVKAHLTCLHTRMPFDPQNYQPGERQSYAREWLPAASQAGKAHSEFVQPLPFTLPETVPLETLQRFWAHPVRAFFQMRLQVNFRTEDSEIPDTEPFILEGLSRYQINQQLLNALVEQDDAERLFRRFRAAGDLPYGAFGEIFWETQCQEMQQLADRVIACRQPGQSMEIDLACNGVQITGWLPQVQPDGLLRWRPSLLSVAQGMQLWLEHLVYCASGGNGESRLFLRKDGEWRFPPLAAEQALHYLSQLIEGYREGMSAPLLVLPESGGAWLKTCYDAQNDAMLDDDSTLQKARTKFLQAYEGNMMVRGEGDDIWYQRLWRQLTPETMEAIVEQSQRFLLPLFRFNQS
# Sequence of Exodeoxyribonuclease V (P08394 whole entry): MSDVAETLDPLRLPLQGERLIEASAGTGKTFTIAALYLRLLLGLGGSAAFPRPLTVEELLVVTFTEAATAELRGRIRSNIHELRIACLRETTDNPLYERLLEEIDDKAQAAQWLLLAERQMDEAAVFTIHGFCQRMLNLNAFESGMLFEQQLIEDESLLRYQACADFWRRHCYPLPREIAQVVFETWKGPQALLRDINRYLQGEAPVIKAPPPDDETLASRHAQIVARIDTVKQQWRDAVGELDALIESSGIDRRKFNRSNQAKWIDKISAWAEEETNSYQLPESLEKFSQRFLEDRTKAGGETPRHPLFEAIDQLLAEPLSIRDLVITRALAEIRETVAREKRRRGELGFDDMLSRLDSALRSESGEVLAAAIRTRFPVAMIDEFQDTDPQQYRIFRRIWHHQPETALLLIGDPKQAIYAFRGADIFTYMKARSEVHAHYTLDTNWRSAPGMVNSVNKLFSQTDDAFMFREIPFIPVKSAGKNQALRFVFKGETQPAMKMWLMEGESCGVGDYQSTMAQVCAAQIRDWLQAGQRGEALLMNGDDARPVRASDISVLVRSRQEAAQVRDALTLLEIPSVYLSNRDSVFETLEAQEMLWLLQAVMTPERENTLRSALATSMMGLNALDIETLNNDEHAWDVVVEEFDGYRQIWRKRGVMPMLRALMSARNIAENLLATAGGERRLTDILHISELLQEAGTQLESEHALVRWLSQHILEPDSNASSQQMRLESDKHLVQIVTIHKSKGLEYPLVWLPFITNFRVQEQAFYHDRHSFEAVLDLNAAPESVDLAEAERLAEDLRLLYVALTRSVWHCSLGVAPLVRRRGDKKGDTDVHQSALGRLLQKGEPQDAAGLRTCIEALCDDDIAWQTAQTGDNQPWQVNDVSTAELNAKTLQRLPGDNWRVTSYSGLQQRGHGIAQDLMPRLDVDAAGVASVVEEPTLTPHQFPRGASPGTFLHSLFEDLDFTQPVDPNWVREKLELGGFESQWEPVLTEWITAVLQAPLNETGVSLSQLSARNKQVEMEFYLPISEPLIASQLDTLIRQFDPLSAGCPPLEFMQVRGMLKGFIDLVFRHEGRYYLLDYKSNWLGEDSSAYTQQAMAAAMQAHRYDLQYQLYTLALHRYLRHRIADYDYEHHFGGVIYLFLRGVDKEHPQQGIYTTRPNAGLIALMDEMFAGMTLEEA
smiles,measurement,setting,value
COC(=O)c1c(-c2ccc(OC)cc2)oc2ccc(-c3ccc(OC)nc3)cc12,AC50,[1],5.18 µM (active)
same,AC50,[2],1.15 µM (active)
CC1(C)CC(CCNS(=O)(=O)c2ccccc2)(c2ccccc2)CCO1 (centres undefined),AC50,[3],52.9 µM (active)
same,AC50,[4],251 µM (active)
NC(=O)CC(NC(=O)Cc1ccc(Cl)cc1)c1ccc(NCCCN2CCCC2=O)c([N+](=O)[O-])c1 (centres undefined),EC50,[5],2.2 µM (active)
CCn1cc(C(=O)O)c(=O)c2cnc(N3CCN(C(=S)Nc4ccccc4C(F)(F)F)CC3)nc21,IC50,[6],3.33 µM (active)
same,IC50,[7],> 39.5 µM (inactive)
C=CCN1C=C2C(=O)C(C)(OC(=O)c3ccc(OC)cc3)C(=O)C(c3ccco3)=C2C=C1CCCC (centres undefined),AC50,[3],22.3 µM (active)
Cc1c(Nc2ncnc3c2cnn3-c2ccccc2)c(=O)n(-c2ccccc2)n1C,AC50,[4],51.5 µM (active)
Cc1ccc(SCc2noc(C(=O)NCC3CCCO3)c2C(=O)O)cc1C (centres undefined),AC50,[8],inconclusive
COc1cc(NC(=O)c2ccc(COCC(F)(F)F)cc2)cc(OC)c1OC,AC50,[9],22.4 µM (inconclusive)
same,AC50,[10],28.2 µM (inconclusive)
same,AC50,[8],inconclusive
same,IC50,[11],> 100 µM (not active)
CC(C)OC(=O)c1c(-c2ccc(Br)cc2)csc1NC(=O)C1CCC1,IC50,[12],1.22 µM (active)
same,IC50,[13],1.98 µM (active)
same,IC50,[14],1.53 µM (active)
same,IC50,[15],1.58 µM (active)
O=C1NC(=S)SC1=Cc1ccc(F)cc1,AC50,[16],0.622 µM (active)
O=[N+]([O-])c1cc(/C=N/Nc2cc(N3CCOCC3)nc(N3CCOCC3)n2)cc2c1OCO2,IC50,[12],> 99 µM (inactive)
same,IC50,[13],> 99 µM (inactive)
same,IC50,[14],> 99 µM (inactive)
same,IC50,[15],> 99 µM (inactive)
O=C(Nc1ccc(F)cc1)c1ccc(CN2CCCCC2)cc1,IC50,[17],> 20 µM (inactive)
same,IC50,[18],> 20 µM (inactive)
CCN(CC)CCCNC(=O)CSc1c2c(nc3cc(Cl)ccc13)CCCC2,EC50,[19],> 79.4 µM (inactive)
same,EC50,[20],17.3 µM (active)
same,EC50,[21],> 79.4 µM (not active)
same,EC50,[22],> 79.4 µM (not active)

# Source: ChEMBL document CHEMBL1201862, “PubChem BioAssay data set” (2004)
